Consider 22 molecules from article PMC10999085, “Synthesis, anticancer evaluation, molecular docking and ADME study of novel pyrido[4ʹ,3ʹ:3,4]pyrazolo[1,5-a]pyrimidines as potential tropomyosin receptor kinase A (TrKA) inhibitors” (BMC Chemistry, 2024).

For series [1], the system named is MCF7 cell line. Kind of series: MTT assay, MCF7 cell line. It counts as cell-based, human. The conditions noted are these: 24 hr treatment, in % (unit assumed); for Cytotoxicity at 5 µg/l: MCF7, 5 µg/l; for Cytotoxicity at 10 µg/l: MCF7, 10 µg/l; for Cytotoxicity at 20 µg/l: MCF7, 20 µg/l. As for the experimental part: (§1) Determination of the inhibitory effects of compounds on cell growth was performed through the MTT assay. This colorimetric assay is based on the conversion of the yellow tetrazolium bromide (MTT) to a purple formazan derivative by mitochondrial succinate dehydrogenase in viable cells. The protocol was discussed in details in Additional file 1.
(§2) Compounds 1, 4a,b, 7a–c, 7k, l, 9a–c, 14a, 15b, 16a–c were selected to be investigated against three human cancer cell lines MCF7, HepG2 and HCT116 cell lines using MTT assay using doxorubicin as the standard drug. Each point is the mean ± SD (standard deviation) of three independent experiments performed in triplicate, using the prism software program (integrated Graphpad software, version 3).
(§3) Cell lines were used to measure the cell growth effects of the compounds using the MTT assay. This colorimetric assay is depend on the conversion of the yellow tetrazolium bromide (MTT) to a purple formazan derivative by mitochondrial succinate dehydrogenase in living cells. Cell lines were cultured in RPMI-1640 medium supplemented with 10% fetal bovine serum. The antibiotics added were 100 units/ml penicillin and 100 µg/ml streptomycin at 37 °C in a 5% CO2 incubator. Cell lines were seeded in a 96-well plates at a density of 1.0x10^4 cells/well and cultured at 37 °C for 48 h under 5% CO2. After incubation, the cells were treated with different concentrations of compounds and incubated for 24 hr. After 24 hr of drug treatment, 20 µl of MTT solution at 5 mg/ml was added to each well and incubated for 4 hr. 100 µl of dimethyl sulfoxide (DMSO) was added into each well to dissolve the purple formazan formed. The colorimetric assay was measured and recorded at absorbance of 570 nm using a plate reader (EXL 800, USA). Relative cell viability (%) was calculated as (A570 of treated sample/A570 of untreated sample) x 100 [36, 37].

For series [2], the system named is HepG2 cell line. The experiment in a line: MTT assay, HepG2 cell line. It counts as cell-based, human. The conditions noted are these: for Cytotoxicity at 5 µg/l: HepG2, 5 µg/l; for Cytotoxicity at 5 µg/l / Cytotoxicity at 10 µg/l / Cytotoxicity at 20 µg/l: MTT, 24 hr treatment, in % (unit assumed); for Cytotoxicity at 10 µg/l: HepG2, 10 µg/l; for Cytotoxicity at 20 µg/l: HepG2, 20 µg/l. As for the experimental part:
as §1, §2, §3

In series [3] the test system is HCT-116 cell line. The experiment in a line: MTT assay, HCT-116 cell line. To be noted: for Cytotoxicity at 5 µg/l: HCT116, 5 µg/l; for Cytotoxicity at 5 µg/l / Cytotoxicity at 10 µg/l / Cytotoxicity at 20 µg/l: MTT, 24 hr treatment, in % (unit assumed); for Cytotoxicity at 10 µg/l: HCT116, 10 µg/l; for Cytotoxicity at 20 µg/l: HCT116, 20 µg/l. The class given is cell-based, human. As for the experimental part:
as §1, §2, §3

Each structure is given as a SMILES string. In brackets after ≈: the same amount, converted by molar mass. Where only a bound is given, the exact number is not on record here.

`O=C1NC(=O)c2c(nn3c(O)cc(-c4ccccc4)nc23)C1=Cc1ccc(Cl)cc1` [Compound 15f, 7-(4-Chlorobenzylidene)-4-hydroxy-2-phenylpyrido[4ʹ,3ʹ:3,4]pyrazolo[1,5-a]pyrimidine-8,10(7H,9H)-dione] came in with a melting point of 330 °C.

As for `O=C1NC(=O)c2c(nn3c(-c4ccccc4)cc(-c4ccccc4)nc23)C1=Cc1ccc2c(c1)OCO2` [Compound 7q, 7-(Benzo[d][1,3]dioxol-5-ylmethylene)-2,4-diphenylpyrido[4ʹ,3ʹ:3,4]pyrazolo[1,5-a]-pyrimidine-8,10(7H,9H)-dione], the melting point stood at 335 °C.

`Cc1cc(O)n2nc3c(c2n1)C(=O)NC(=O)C3=NNc1ccc(Cl)cc1` [Compound 16d, 7-(2-(4-Chlorophenyl)hydrazono)-4-hydroxy-2-methylpyrido[4ʹ,3ʹ:3,4]pyrazolo[1,5-a]pyrimidine-8,10(7H,9H)-dione] came in with a melting point of 310 °C.

`O=C1NC(=O)c2c(nn3c(O)cc(-c4ccccc4)nc23)C1=Cc1ccccc1` [Compound 15d, 7-Benzylidene-4-hydroxy-2-phenylpyrido[4ʹ,3ʹ:3,4]pyrazolo[1,5-a]pyrimidine-8,10(7H,9H)-dione] yielded a melting point of 300 °C.

In the case of `Cc1cc(C)n2nc3c(c2n1)C(=O)NC(=O)C3=Cc1cccs1` [Compound 7i, 2,4-Dimethyl-7-(thiophen-2-ylmethylene)pyrido[4ʹ,3ʹ:3,4]pyrazolo[1,5-a]pyrimidine-8,10(7H,9H)-dione], the melting point worked out at 290 °C.

Consider `O=C1NC(=O)c2c(nn3c(-c4ccccc4)cc(-c4ccccc4)nc23)C1=NNc1ccc(Cl)cc1` [Compound 11d, 7-(2-(4-Chlorophenyl)hydrazono)-2,4-diphenylpyrido[4ʹ,3ʹ:3,4]pyrazolo[1,5-a]pyrimidine-8,10(7H,9H)-dione], for which the melting point is 335 °C.

Regarding `Cc1ccc(NN=C2C(=O)NC(=O)c3c2nn2c(-c4ccccc4)cc(-c4ccccc4)nc32)cc1` [Compound 11b, 2,4-Diphenyl-7-(2-(p-tolyl)hydrazono)pyrido[4ʹ,3ʹ:3,4]pyrazolo[1,5-a]pyrimidine-8,10(7H,9H)-dione], the melting point was determined as 320 °C.

As to `Cc1ccc(NN=C2C(=O)NC(=O)c3c2nn2c(O)cc(-c4ccccc4)nc32)cc1` [Compound 16f, 4-Hydroxy-2-phenyl-7-(2-(p-tolyl)hydrazono)pyrido[4ʹ,3ʹ:3,4]pyrazolo[1,5-a]pyrimidine-8,10(7H,9H)-dione], the melting point was 320 °C.

Take `Nc1n[nH]c2c1C(=O)NC(=O)C2` [Compound 1, 3-amino-1,7-dihydro-4H-pyrazolo[4,3-c]pyridine-4,6(5H)-dione]: in series [1], the “Cytotoxicity at 5 µg/l” value stood at 31.71, the “Cytotoxicity at 10 µg/l” value was 61.39 and the “Cytotoxicity at 20 µg/l” value turned out to be 73.65. Further, in series [2], the “Cytotoxicity at 5 µg/l” value came to 43.17, the “Cytotoxicity at 10 µg/l” value is 53.18 and the “Cytotoxicity at 20 µg/l” value was 65.34. In series [3], the “Cytotoxicity at 5 µg/l” value is 16.23, the “Cytotoxicity at 10 µg/l” value amounted to 52.09 and the “Cytotoxicity at 20 µg/l” value was found to be 71.08.

`O=C1NC(=O)c2c(nn3c(-c4ccccc4)cc(-c4ccccc4)nc23)C1=Cc1cccs1` [Compound 7s, 2,4-Diphenyl-7-(thiophen-2-ylmethylene)pyrido[4ʹ,3ʹ:3,4]pyrazolo[1,5-a]pyrimidine-8,10(7H,9H)-dione] gave a melting point of 315 °C.

Molecule `O=C1Cc2nn3c(O)cc(-c4ccccc4)nc3c2C(=O)N1` [Compound 14b, 4-Hydroxy-2-phenylpyrido[4ʹ,3ʹ:3,4]pyrazolo[1,5-a]pyrimidine-8,10(7H,9H)-dione] returned a melting point of 310 °C.

For `COc1ccc(C=C2C(=O)NC(=O)c3c2nn2c(O)cc(-c4ccccc4)nc32)cc1` [Compound 15e, 4-Hydroxy-7-(4-methoxybenzylidene)-2-phenylpyrido[4ʹ,3ʹ:3,4]pyrazolo[1,5-a]pyrimidine-8,10(7H,9H)-dione], the melting point is 300 °C.

On to `COc1ccc(NN=C2C(=O)NC(=O)c3c2nn2c(O)cc(-c4ccccc4)nc32)cc1` [Compound 16g, 4-Hydroxy-7-(2-(4-methoxyphenyl)hydrazono)-2-phenylpyrido[4ʹ,3ʹ:3,4]pyrazolo[1,5-a]pyrimidine-8,10(7H,9H)-dione], for which the melting point worked out at 323 °C.

`Cc1cc(C)n2nc3c(c2n1)C(=O)NC(=O)C3=NNc1ccc(Cl)cc1` [Compound 9d, 7-(2-(4-Chlorophenyl)hydrazono)-2,4-dimethylpyrido[4ʹ,3ʹ:3,4]pyrazolo[1,5-a]pyrimidine-8,10(7H,9H)-dione] yielded a melting point of 300 °C.

Take `COc1cccc2c1C(=O)c1c(O)c3c(c(O)c1C2=O)C[C@@](O)(C(=O)CO)C[C@@H]3O[C@H]1C[C@H](N)[C@H](O)[C@H](C)O1` [Doxo, Doxorubicin, reference compound]: the “Cytotoxicity at 5 µg/l” value in series [1] was 75.43; in series [2] it was 53.46; in series [3], 62.14. Further, the “Cytotoxicity at 10 µg/l” value in series [1] worked out at 89.14; in series [2], 68.59; in series [3], 77.18. Moreover, the results for the “Cytotoxicity at 20 µg/l” value in series [1], in series [2] and in series [3] were 98.19, 91.13 and 95.26, respectively. Also, the IC50 in series [2] (Homo sapiens, HepG2, MTT, read-out: IC50 (drug concentration that inhibited 50% of cell proliferation)) turned out to be 4.75 ng/mL (≈ 8.74 nM); in series [3] (Homo sapiens, HCT-116, HCT116, MTT, read-out: IC50 (drug concentration that inhibited 50% of cell proliferation)), 3.64 ng/mL (≈ 6.7 nM).

As to `Cc1cc(O)n2nc3c(c2n1)C(=O)NC(=O)C3=Cc1ccc(Cl)cc1` [Compound 15c, 7-(4-Chlorobenzylidene)-4-hydroxy-2-methylpyrido[4ʹ,3ʹ:3,4]pyrazolo[1,5-a]pyrimidine-8,10(7H,9H)-dione], the melting point was found to be 330 °C.

The molecule `Cc1cc(C)n2nc3c(c2n1)C(=O)NC(=O)C3=Cc1ccc2c(c1)OCO2` [Compound 7g, 7-(Benzo[d][1,3]dioxol-5-ylmethylene)-2,4-dimethylpyrido[4ʹ,3ʹ:3,4]pyrazolo[1,5-a]-pyrimidine-8,10(7H,9H)-dione] returned a melting point of 300 °C.

`O=C1NC(=O)c2c(nn3c(O)cc(-c4ccccc4)nc23)C1=NNc1ccccc1` [Compound 16e, 4-Hydroxy-2-phenyl-7-(2-phenylhydrazono)pyrido[4ʹ,3ʹ:3,4]pyrazolo[1,5-a]pyrimidine-8,10(7H,9H)-dione] gave a melting point of 300 °C.

In turn, `O=C1NC(=O)c2c(nn3c(-c4ccccc4)cc(-c4ccccc4)nc23)C1=Cc1ccccc1O` [Compound 7n, 7-(2-Hydroxybenzylidene)-2,4-diphenylpyrido[4ʹ,3ʹ:3,4]pyrazolo[1,5-a]pyrimidine-8,10(7H,9H)-dione] had a melting point of 275 °C.

Take `O=C1NC(=O)c2c(nn3c(O)cc(-c4ccccc4)nc23)C1=NNc1ccc(Cl)cc1` [Compound 16h, 7-(2-(4-Chlorophenyl)hydrazono)-4-hydroxy-2-phenylpyrido[4ʹ,3ʹ:3,4]pyrazolo[1,5-a]pyrimidine-8,10(7H,9H)-dione]: the melting point came out at 330 °C.

`O=C1NC(=O)c2c(nn3c(-c4ccccc4)cc(-c4ccccc4)nc23)C1=Cc1ccc(Cl)cc1` [Compound 7m, 7-(4-Chlorobenzylidene)-2,4-diphenylpyrido[4ʹ,3ʹ:3,4]pyrazolo[1,5-a]pyrimidine-8,10(7H,9H)-dione] returned a melting point of 320 °C.

Consider `Cc1cc(C)n2nc3c(c2n1)C(=O)NC(=O)C3=Cc1ccccc1O` [Compound 7d, 7-(2-Hydroxybenzylidene)-2,4-dimethylpyrido[4ʹ,3ʹ:3,4]pyrazolo[1,5-a]pyrimidine-8,10(7H,9H)-dione], for which the melting point was > 360 °C.
